Columns and labels:
human PPARγ2 = target: T1, human PPARγ2 (Homo sapiens, UniProt P37231); assay: PPARγ activation activity, Gal4 chimera luciferase transfection assay using COS7 cells; type: cell-based; details: COS7 cells
T1 construct: the amino acids 182 to 505 of human PPARγ2; expressed in transfected cells; host or cells: COS7 cells
Description: The agonistic activity of the compounds of the invention on PPARγ was measured based on the transfection assay using COS7 cells (DS Pharma Biomedical Co., Ltd., Osaka, Japan), which are the cell line derived from the kidney of the African green monkey. COS7 cells were cultured under 5% CO2 concentration, and DMEM medium containing 10% fetal bovine serum, glutamic acid, and antibiotics was used as a medium.
As an expression vector, a chimera in which DNA binding domain of Gal4, which is a yeast transcription factor, and ligand binding domain of human PPAR^γ2 are fused, i.e., a fused product between the amino acids 1 to 147 of Gal4 transcription factor and the amino acids 182 to 505 of human PPARγ2, was used. Furthermore, as a reporter vector, a firefly luciferase containing five copies of Gal4 recognition sequence in the promoter region was used. Plasmid transfection to the cells was performed according to a method which uses jetPEI (trade name, manufactured by Funakoshi Co., Ltd., Tokyo, Japan). Furthermore, β-galactosidase expression vector was employed as an internal standard.
After the transfection of the cells, the medium was replaced with a DMEM medium (containing 1% serum) added with the compound, and the cells were further cultured for 16 hours. After that, the luciferase activity and β-galactosidase activity in the cell lysis solution were measured.
For the present test, dimethyl sulfoxide (DMSO) was used for dissolution and dilution of the test compounds, and during the cell treatment, the DMSO concentration in DMEM medium (containing 1% serum) was adjusted to 0.1%. As a positive compound, rosiglitazone (trade name, manufactured by ALEXIS Corporation, Switzerland) was used. […] The 50% effective concentration of the test compound (EC50, 50% effect concentration) was calculated by using SAS Preclinical Package Ver5.0 (trade name, manufactured by SAS institute Japan Co., Tokyo, Japan), which is a statistical analysis program.

[1] = target: T2, angiotensin II type 1 receptor (Oryctolagus cuniculus, UniProt P34976); assay: Angiotensin II antagonistic activity in isolated rabbit blood vessels; details: angiotensin II (10 nM)-induced contraction of rabbit thoracic aorta ring
T2 construct: By using a specimen of isolated rabbit blood vessels; from tissue; host or cells: rabbit thoracic aorta ring (New Zealand White, male)
T2 sequence (P34976 1-359): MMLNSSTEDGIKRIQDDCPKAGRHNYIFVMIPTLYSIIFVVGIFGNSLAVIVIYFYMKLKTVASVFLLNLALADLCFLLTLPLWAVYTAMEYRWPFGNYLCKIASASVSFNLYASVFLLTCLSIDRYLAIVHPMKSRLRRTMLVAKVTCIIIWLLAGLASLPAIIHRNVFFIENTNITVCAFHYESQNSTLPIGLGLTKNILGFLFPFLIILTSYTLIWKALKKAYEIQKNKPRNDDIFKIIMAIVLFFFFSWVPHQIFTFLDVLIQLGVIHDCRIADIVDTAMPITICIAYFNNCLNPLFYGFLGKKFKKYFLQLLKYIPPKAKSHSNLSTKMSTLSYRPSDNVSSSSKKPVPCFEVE
Procedure, shortened: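 Contraction of isolated rabbit vessel induced by angiotensin II, in a magnus bath at 37° C gassed with 95% O2/5% CO2. Responses expressed as % of the 10 nM angiotensin II contraction without compound, and IC50 calculated from the concentration-response curve.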

T1 sequence (P37231 182-505): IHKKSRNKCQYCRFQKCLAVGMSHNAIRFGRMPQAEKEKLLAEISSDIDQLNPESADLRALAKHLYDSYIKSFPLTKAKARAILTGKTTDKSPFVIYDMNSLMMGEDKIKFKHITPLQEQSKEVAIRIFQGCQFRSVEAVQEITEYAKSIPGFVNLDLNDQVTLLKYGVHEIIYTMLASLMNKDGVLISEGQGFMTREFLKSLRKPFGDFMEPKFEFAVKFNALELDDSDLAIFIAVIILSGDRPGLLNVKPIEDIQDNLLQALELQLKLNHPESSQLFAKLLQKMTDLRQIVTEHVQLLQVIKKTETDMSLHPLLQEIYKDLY
T1 sequence (P04386 1-147 partner limits assumed): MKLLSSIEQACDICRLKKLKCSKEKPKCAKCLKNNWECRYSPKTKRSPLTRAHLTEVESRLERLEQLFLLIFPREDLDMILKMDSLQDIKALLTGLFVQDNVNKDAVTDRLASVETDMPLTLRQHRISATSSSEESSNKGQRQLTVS

SMILES: CCCCc1nc(C)n(-c2nc3ccccc3n2C)c(=O)c1Cc1ccc(-c2ccccc2-c2nnn[nH]2)cc1 [Example 69, 5-{[2′-(1H-tetrazol-5-yl)biphenyl-4-yl]methyl}-6-butyl-2-methyl-3-(1-methyl-1H-benzimidazol-2-yl)pyrimidin-4 (3H)-one]
- EC50 (human PPARγ2; Gal4-human PPARγ2 LBD chimera, luciferase reporter, 16 hours, read-out: EC50): 2.69 µM
- Emax (human PPARγ2; COS-7, 16 h, maximum activity strength relative to the maximum activity of rosiglitazone, read-out: % MAX vs Rosiglitazone): 31.6%
- IC50 [1]: 0.958 µM
